Key:
Type in all cases: cell-based
[1] = tested on: Wnt activity (Sp5-Luc reporter, SW480 colon carcinoma cells); experiment: Wnt activity screening assay: Sp5-Luc reporter gene assay in SW480 cells; conditions: Homo sapiens; for EC50: SW480 cells, overnight incubation; for inhibition at 10 µM: given where EC50 >10 μM, SW480, read-out: percent inhibition at 10 μM
In short: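 Luminescence (BrightGlo) read after overnight 37 °C exposure of Sp5-Luc SW480 reporter cells, 4,000/well in 1% FBS, to compound dosed 1:3 over 10 points from 10 μM with 0.1% DMSO. Values normalized to DMSO-only cells, fitted with variable-slope four-parameter model; where EC50 exceeds 10 μM, % inhibition at 10 μM reported.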

IL-6 (THP-1 cells) = experiment: IL-6 inhibition in LPS-stimulated THP-1 cells (HTRF); conditions: Homo sapiens; for EC50: THP-1 cells, LPS 500 ng/mL, 22 hours, IL6 HTRF
In short: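 THP-1 cells, pre-cultured 24 h in 1% FBS, were preincubated 2 h with compound over a 10-point 1:3 series from 10 μM (0.1% DMSO). They were then stimulated with 500 ng/mL LPS for 22 h at 37° C. IL-6 was read by HTRF 665/620 nm ratio, and EC50 was fitted by four-parameter regression against DMSO; above 10 μM, % inhibition at 10 μM is given.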

SW480 colon cancer cells = experiment: Cell viability assay (CellTiter-Blue); conditions: Homo sapiens; for EC50: 96 h, SW480 cell viability, four days, CellTiter-Blue; for inhibition at 10 µM: given where EC50 >10 μM, SW480 viability, read-out: percent inhibition at 10 μM
In short: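 Four-day viability readout in SW480 cells: compound at 0.0045–10 μM (1:3 series), DMSO controls in eight replicates, CellTiter-Blue fluorescence after ~3 h. Values are regression-derived EC50s, or percent inhibition at 10 μM when EC50 exceeds 10 μM.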

EC50 [1] [µM] | EC50 (IL-6 (THP-1 cells)) [µM] | EC50 (SW480 colon cancer cells) [µM] | SMILES | inhibition at 10 µM [1] [%] | inhibition at 10 µM (SW480 colon cancer cells) [%] | inhibition at 10 µM (IL-6 (THP-1 cells); at 10 μM, given where EC50 >10 μM, THP-1, IL6, read-out: percent inhibition at 10 μM) [%]
4.67 | 6.75 | 2.26 | CN(C)CCNc1cc(F)cc(-c2ccnc3[nH]c(-c4n[nH]c5ccc(-c6cncc(CNCC7CCCC7)c6)nc45)cc23)c1 [Compound 473, N^1-(3-(2-(5-(5-(((Cyclopentylmethyl)amino)methyl)pyridin-3-yl)-1H-pyrazolo[4,3-b]pyridin-3-yl)-1H-pyrrolo[2,3-b]pyridin-4-yl)-5-fluorophenyl)-N^2,N^2-dimethylethane-1,2-diamine] | – | – | –
> 10 | 3.34 | > 10 | O=C(CC1CCNCC1)Nc1cncc(-c2ccc3[nH]nc(-c4cc5c(-c6ccoc6)ccnc5[nH]4)c3n2)c1 [Compound 689, N-(5-(3-(4-(Furan-3-yl)-1H-pyrrolo[2,3-b]pyridin-2-yl)-1H-pyrazolo[4,3-b]pyridin-5-yl)pyridin-3-yl)-2-(piperidin-4-yl)acetamide] | 10.9 | 9.2 | –
2.36 | 0.967 | > 10 | Cc1ccncc1-c1ccc2[nH]nc(-c3cc4c(N5CCCCC5)ccnc4[nH]3)c2n1 [Compound 173, 5-(4-Methylpyridin-3-yl)-3-(4-(piperidin-1-yl)-1H-pyrrolo[2,3-b]pyridin-2-yl)-1H-pyrazolo[4,3-b]pyridine] | – | 49.2 | –
> 10 | > 10 | > 10 | c1ccc(-c2ccc3[nH]nc(-c4cc5c(N6CCCCC6)ccnc5[nH]4)c3n2)nc1 [Compound 196, 3-(4-(Piperidin-1-yl)-1H-pyrrolo[2,3-b]pyridin-2-yl)-5-(pyridin-2-yl)-1H-pyrazolo[4,3-b]pyridine] | 9.8 | 2.4 | 46.5
> 10 | 1.08 | > 10 | CN(C)Cc1cncc(-c2ccc3[nH]nc(-c4cc5c(-c6ccccc6F)ccnc5[nH]4)c3n2)c1 [Compound 69, 1-(5-(3-(4-(2-Fluorophenyl)-1H-pyrrolo[2,3-b]pyridin-2-yl)-1H-pyrazolo [4,3-b]pyridin-5-yl)pyridin-3-yl)-N,N-dimethylmethanamine] | 8.3 | 33.5 | –

From US10206909B2, “3-(1H-pyrrolo[2,3-B]pyridin-2-yl)-1H-pyrazolo[4,3-B]pyridines and therapeutic uses thereof” (Samumed, LLC, priority 2015, dated 2019)
